# Experimental data as given in patent publication US20090104211A1, “Treatment of atherosclerosis” (AFFIRIS Forschungs-und Entwicklungs GmbH, priority 2004, published 2009).
# Tested on: anti-CETP monoclonal antibody (detects the CETP-derived amino acid sequence FGFPEHLLVDFLQSLS)
# Assay: ELISA screening of peptide libraries with anti-CETP monoclonal antibody for mimotope identification
# Format: binding
# Settings: 7 mer / 8 mer peptide libraries
# Source text: The problem of the anti-CETP vaccine approach discussed above is that the vaccine formulation comprises a self peptide and therefore must break natural tolerance against self antigens. The invention describes a CETP mimotope that can be used for vaccination: The mimotope shall induce the production of antibodies against CETP. […] Thus, the induction of an anti-CETP antibody response is greatly facilitated. The mimotope is identified with a monoclonal antibody (mAb) and (commercially available) peptide libraries (e.g. according to 16). An anti-CETP monoclonal antibody is used that neutralizes CETP activity (17). This mAb detects a sequence within the C-terminal 26 amino acids of CETP necessary for neutral lipid transfer activity (18).
# One monoclonal antibody used for the mimotope identification detects the CETP-derived amino acid sequence […] (=original epitope).
# The mimotope has a preferred length of 5 to 15 amino acids. Two different libraries are used in ELISA assays to define mimotope sequences.
# Library 1: This 7 mer library contains peptides with the following sequences (amino acid positions 1 to 7):
# Library 2: This 8 mer library contains peptides with the following sequences (amino acid positions 1 to 8):
# Position 1: all natural aa except of C (19 possibilities) Position 2: all natural aa except of C (19 possibilities) Position 3: all natural aa except of C (19 possibilities) Position 4: all natural aa except of C (19 possibilities) Position 5: all natural aa except of C (19 possibilities) Position 6: all natural aa except of C (19 possibilities) Position 7: all natural aa except of C (19 possibilities) Position 8: all natural aa except of C (19 possibilities)
row,Substance,mimotope detected by monoclonal antibody
1,"ALKHKIP [7 mer peptide, CETP mimotope]",detected by a monoclonal antibody
2,"ALKNKLP [7 mer peptide, CETP mimotope]",detected by a monoclonal antibody
3,"ALKYKLP [7 mer peptide, CETP mimotope]",detected by a monoclonal antibody
4,"AAQKDKVP [8 mer peptide, CETP mimotope]",detected by a monoclonal antibody
5,"ALKSKIP [7 mer peptide, CETP mimotope]",detected by a monoclonal antibody
6,"ALKNKIP [7 mer peptide, CETP mimotope]",detected by a monoclonal antibody
7,"ALKHKVP [7 mer peptide, CETP mimotope]",detected by a monoclonal antibody
8,"AVKGKLP [7 mer peptide, CETP mimotope]",detected by a monoclonal antibody
9,"ALKDKLP [7 mer peptide, CETP mimotope]",detected by a monoclonal antibody
10,"ALKDKVP [7 mer peptide, CETP mimotope]",detected by a monoclonal antibody
11,"ALKGKIP [7 mer peptide, CETP mimotope]",detected by a monoclonal antibody
